One substance from patent publication US11440935B2, “3″,5″-dimethoxybenzoyl-3′-amino-3′-deoxy adenosine-5′-triphosphates and pharmaceutical uses thereof” (Danmir Therapeutics, LLC, priority 2018, dated 2022) can be followed below.

Test [1] has as its system nodose ganglion vagal sensory nerve terminals. Nature of the test: ATP-induced neural action potentials in guinea-pig lung-vagus preparation ex vivo. To be noted: ATP 10 μM; DT-0111 1 mM; innervated guinea-pig lung ex vivo. The protocol:
The innervated guinea-pig lung preparation was prepared as was described in Undem B J, Chuaychoo B, Lee M G, Weinreich D, Myers A C, Kollarik M. Subtypes of vagal afferent C-fibres in guinea-pig lungs. J Physiol 2004; 556: 905-917; Weigand L A, Ford A P, Undem B J. A role for ATP in bronchoconstriction-induced activation of guinea pig vagal intrapulmonary C-fibres. J Physiol 2012; 590: 4109-4120. The contents of Undem et al. and Weigand et al. are incorporated herein for the purpose of the preparation of the innervated guinea-pig lung preparation. The response to ATP (10 μM; 1 ml, slowly infused into trachea and pulmonary artery) was assessed as the number of action potentials it elicited. Two control responses 15 minutes apart were recorded. There was not differences in the number of action potentials evoked between the first and second response (p>0.1). Subsequently, the lung superfused and perfused via both trachea and pulmonary artery for 15 min with increasing concentration of DT-0111 and the ATP challenge was repeated. The data were quantified as the total number of action potentials evoked and the peak frequency (Hz) as measured by the most action potentials evoked in any 1 s bin. DT-0111 was prepared in distilled water as a 10 mM solution, and aliquots were stored frozen at −20° C. (1-5 days). […]

The test system of a further test is anesthetized guinea-pigs. Nature of the test: ATP-induced bronchoconstriction in anesthetized guinea-pig (tracheal pressure). It is filed as in vivo. To be noted: pretreatment with aerosolized DT-0111, anesthetized guinea-pigs. The protocol:
Male Dunkin-Hartley guinea pigs (GPs) (220-250 g, Charles River) were quarantined for 14 days. The housing room was constantly ventilated, and the temperature kept at 23° C. Mean body weight of the GPs on day of experiment was 336.0±9.9 g. Anesthesia were induced by using a mixture of ketamine+xylazine (40-80 mg/kg+5-10 mg/kg; IM) as previously published (Zhuang, et al., “High-Frequency Electrical Stimulatino of Cervical Vagi Reduces Airway Response to Methacholine,” World J. of Respirology 2013 Jul. 28; 3(2): 11-19). Supplementary anesthetic doses (¼-½ of the original dose) were administered as needed if ear pinch changed respiratory rate and/or upon the manifestation of an accelerated heart rate. Body temperature was monitored continuously with a rectal thermometer and maintained at approximately 36.5° C. using a heating pad and lamp. […]
The side branch of the tracheal cannulation was connected a pressure transducer. The pressure signal was pre-amplified by a bridge amplifier (AD Instruments Inc., CO) and then digitized and recorded. […] The pressure signal and animal rectal temperature were monitored and digitally recorded continuously in computer files throughout the experiment using the PowerLab/8 sp data acquisition system (AD Instruments) with DELL XPS 8700 computer equipped with Microsoft Windows 7 and LabChart Pro 7 software. […]

Consider “Sodium 3′-N-(3,5-dimethoxybenzoyl)-3′-deoxy-β-D-adenosine 5′-triphosphate [DT-0111]”, for which the “effect on ATP-induced action potentials” value in test [1] is reported as “markedly suppresses the effect of ATP”. Also, in the test with anesthetized guinea-pigs, the “tracheal pressure (Ptr) after ATP doses” value was “significantly suppressed”.
